Experiments:
[1] = tested on: non-cancerous human lung fibroblast cells (HLF); test: Cytotoxicity, CellTiter Glo assay, non-cancerous human lung fibroblast cells; assay type: cell-based; settings: for IC50: Homo sapiens, Fibroblast, 72 h, read-out: IC50 Non-cancerous HLF
NCI-H522 cells [2] = test: Antiproliferative activity, CellTiter Glo assay, NCI-H522; settings: Homo sapiens, NCI-H522, 72 h, read-out: IC50 NCIH522
A549 cells = test: Antiproliferative activity, CellTiter Glo assay, A549; settings: Homo sapiens, A549, 72 h, read-out: IC50 A549
[3] = tested on: panel of 485 kinases (including 110 oncogenic kinases); test: Kinase activity profiling; assay type: biochemical
ANKK1 = target: T1, ANKK1 (Homo sapiens, UniProt Q8NFD2); test: Kinase activity profiling; assay type: biochemical; settings: concentration not given
T1 sequence (Q8NFD2 1-765): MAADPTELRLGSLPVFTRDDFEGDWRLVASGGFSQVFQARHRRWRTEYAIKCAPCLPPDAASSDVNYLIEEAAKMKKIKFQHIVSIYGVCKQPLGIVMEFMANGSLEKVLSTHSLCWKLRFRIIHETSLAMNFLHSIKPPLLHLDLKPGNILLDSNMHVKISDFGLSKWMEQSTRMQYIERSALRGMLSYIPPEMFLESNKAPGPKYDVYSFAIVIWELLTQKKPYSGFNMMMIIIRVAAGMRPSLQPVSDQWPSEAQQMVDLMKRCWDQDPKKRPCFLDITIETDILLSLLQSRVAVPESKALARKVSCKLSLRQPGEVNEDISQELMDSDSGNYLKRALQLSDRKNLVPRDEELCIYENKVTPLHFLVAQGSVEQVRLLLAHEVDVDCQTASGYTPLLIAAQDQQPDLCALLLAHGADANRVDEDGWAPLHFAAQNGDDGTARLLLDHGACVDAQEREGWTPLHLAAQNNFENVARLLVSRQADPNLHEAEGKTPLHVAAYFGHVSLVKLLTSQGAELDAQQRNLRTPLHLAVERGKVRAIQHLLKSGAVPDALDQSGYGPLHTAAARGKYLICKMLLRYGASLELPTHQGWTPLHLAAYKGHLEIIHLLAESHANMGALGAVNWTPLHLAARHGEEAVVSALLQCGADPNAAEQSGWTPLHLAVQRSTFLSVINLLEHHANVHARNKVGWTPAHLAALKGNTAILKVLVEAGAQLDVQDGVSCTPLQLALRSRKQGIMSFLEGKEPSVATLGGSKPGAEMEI

NCI-H522 cells [4] = test: Cell cycle analysis by flow cytometry; assay type: cell-based, human; settings: 48hrs at 5 μM
ACVRL1 = ACVRL1 (Homo sapiens, UniProt P37023); test: Kinase activity profiling; assay type: biochemical; settings: concentration not given
NUAK2 = target: T2, NUAK2 (Homo sapiens, UniProt Q9H093); test: Kinase activity profiling; assay type: biochemical; settings: concentration not given
T2 sequence (Q9H093 1-628): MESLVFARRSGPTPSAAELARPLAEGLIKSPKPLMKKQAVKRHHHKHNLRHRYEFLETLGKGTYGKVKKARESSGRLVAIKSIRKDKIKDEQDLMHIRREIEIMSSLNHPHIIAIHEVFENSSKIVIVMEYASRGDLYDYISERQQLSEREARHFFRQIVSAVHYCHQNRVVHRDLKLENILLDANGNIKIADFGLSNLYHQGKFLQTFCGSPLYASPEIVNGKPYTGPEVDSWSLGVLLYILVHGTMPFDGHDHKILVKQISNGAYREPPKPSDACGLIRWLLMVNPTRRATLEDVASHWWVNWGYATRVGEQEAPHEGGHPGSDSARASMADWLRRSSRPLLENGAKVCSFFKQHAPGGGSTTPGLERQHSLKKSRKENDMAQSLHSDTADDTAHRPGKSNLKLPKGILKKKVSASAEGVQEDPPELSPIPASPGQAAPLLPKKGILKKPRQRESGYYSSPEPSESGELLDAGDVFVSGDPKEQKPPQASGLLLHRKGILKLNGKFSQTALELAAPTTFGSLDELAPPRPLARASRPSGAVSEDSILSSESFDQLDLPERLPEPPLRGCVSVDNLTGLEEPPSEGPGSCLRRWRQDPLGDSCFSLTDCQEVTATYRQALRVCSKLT

Chain of ACVRL1 (P37023 22-503): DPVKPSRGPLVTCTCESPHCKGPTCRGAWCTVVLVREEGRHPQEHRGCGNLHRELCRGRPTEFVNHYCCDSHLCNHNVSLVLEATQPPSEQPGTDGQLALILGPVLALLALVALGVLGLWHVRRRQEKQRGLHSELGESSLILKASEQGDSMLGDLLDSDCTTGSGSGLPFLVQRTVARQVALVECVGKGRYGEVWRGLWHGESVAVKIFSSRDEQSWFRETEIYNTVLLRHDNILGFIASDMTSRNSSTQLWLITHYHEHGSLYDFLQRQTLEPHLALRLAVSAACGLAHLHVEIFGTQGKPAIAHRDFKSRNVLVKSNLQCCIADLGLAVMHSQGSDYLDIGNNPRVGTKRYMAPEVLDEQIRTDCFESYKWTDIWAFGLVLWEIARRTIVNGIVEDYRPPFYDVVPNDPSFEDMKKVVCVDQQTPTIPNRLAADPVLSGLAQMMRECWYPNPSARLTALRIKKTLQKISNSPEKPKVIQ

Row | Structure (SMILES) | IC50 [1] [µM] | IC50 (NCI-H522 cells [2]) [µM] | IC50 (A549 cells) [µM] | times less cytotoxic to non-cancerous cells ([1]; non-cancerous cells versus A549 and NCIH522 cancer cell lines) [times] | inhibitory activity over panel of 485 kinases [3] | inhibitory activity against ANKK1 (ANKK1) [%] | effect on cell cycle progression (NCI-H522 cells [4]) | inhibitory activity against ACVRL1 (ACVRL1) [%] | inhibitory activity against NUAK2 (NUAK2) [%]
1 | CC1=NN(c2ccccc2)C(=O)C1(C)O (stereo not drawn) [P1, 4-hydroxy-4,5-dimethyl-2-phenyl-2,4-dihydro-3H-pyrazol-3-one] | > 100 | > 100 | > 100 | – | – | – | – | – | –
2 | CCCC1=NN(c2ccccc2)C(=O)C1 [P2, 2-phenyl-5-propyl-2,4-dihydro-3H-pyrazol-3-one] | – | > 100 | > 100 | – | – | – | – | – | –
3 | O=C1CC(c2ccccc2)=NN1c1ccccc1 [P3, 2,5-diphenyl-2,4-dihydro-3H-pyrazol-3-one] | 25.1 ± 1.39 | 17 ± 2.61 | 10.3 ± 1.55 | – | – | – | – | – | –
4 | O=C1CC(c2ccccc2)=NN1c1ccc(Br)cc1 [P4, 2-(4-bromophenyl)-5-phenyl-2,4-dihydro-3H-pyrazol-3-one] | 0.72 ± 1.07 | 4.93 ± 1.13 | 2.61 ± 1.12 | – | – | – | – | – | –
5 | O=C1CC(c2ccccc2)=NN1c1ccc(Cl)cc1 [P5, 2-(4-chlorophenyl)-5-phenyl-2,4-dihydro-3H-pyrazol-3-one] | 0.99 ± 1.25 | 4.5 ± 1.16 | 1.98 ± 1.1 | – | – | – | – | – | –
6 | O=C1CC(c2ccc([N+](=O)[O-])cc2)=NN1c1ccccc1 [P6, 5-(4-nitrophenyl)-2-phenyl-2,4-dihydro-3H-pyrazol-3-one] | 26.8 ± 1.4 | 40.5 ± 2.3 | 39.6 ± 1.05 | – | – | – | – | – | –
7 | O=C1CC(c2ccc(Br)cc2)=NN1c1ccccc1 [P7, 5-(4-bromophenyl)-2-phenyl-2,4-dihydro-3H-pyrazol-3-one] | 61.3 ± 1.08 | 4.7 ± 1.38 | 6.35 ± 0.85 | 10 | no potential inhibitory activity against any tested kinase | 50 | more cell population in G0/G1 phase | 47 | 41
8 | O=C1CC(c2ccc(F)cc2)=NN1c1ccccc1 [P8, 5-(4-fluorophenyl)-2-phenyl-2,4-dihydro-3H-pyrazol-3-one] | 17.7 ± 1.1 | 17.9 ± 3.36 | 9.51 ± 3.12 | – | – | – | – | – | –
9 | COc1ccc(C2=NN(c3ccccc3)C(=O)C2)cc1 [P9, 5-(4-methoxyphenyl)-2-phenyl-2,4-dihydro-3H-pyrazol-3-one] | – | 51.2 ± 3.06 | 42.2 ± 2.76 | – | – | – | – | – | –
10 | COc1cccc(C2=NN(c3ccccc3)C(=O)C2)c1 [P10, 5-(3-methoxyphenyl)-2-phenyl-2,4-dihydro-3H-pyrazol-3-one] | – | > 100 | > 100 | – | – | – | – | – | –
11 | O=C1CC(c2ccc(C(F)(F)F)cc2)=NN1c1ccccc1 [P11, 2-phenyl-5-(4-(trifluoromethyl)phenyl)-2,4-dihydro-3H-pyrazol-3-one] | 26.1 ± 1.12 | 4.88 ± 1.73 | 5.98 ± 0.84 | – | – | – | more cell population in G0/G1 phase | – | –
12 | O=C1CC(c2cc(F)c(F)c(F)c2F)=NN1c1ccccc1 [P12, 2-phenyl-5-(2,3,4,5-tetrafluorophenyl)-2,4-dihydro-3H-pyrazol-3-one] | 8.52 ± 1.09 | 9.9 ± 2.44 | 8.6 ± 0.59 | – | – | – | – | – | –
13 | O=C1CC(c2ccc(F)cc2)=NN1c1ccc(Br)cc1 [P13, 2-(4-bromophenyl)-5-(4-fluorophenyl)-2,4-dihydro-3H-pyrazol-3-one] | 3.57 ± 1.15 | 3.7 ± 0.34 | 2.67 ± 0.51 | – | – | – | more cell population in G2/M phase | – | –
14 | O=C1CC(c2ccc(Br)cc2)=NN1c1ccc(Br)cc1 [P14, 2,5-bis(4-bromophenyl)-2,4-dihydro-3H-pyrazol-3-one] | 2.55 ± 1.1 | 2.41 ± 0.57 | 2.73 ± 0.28 | – | – | – | more cell population in G2/M phase | – | –
15 | O=C1CC(c2ccc(Br)cc2)=NN1c1ccc(C(F)(F)F)cc1 [P16, 5-(4-bromophenyl)-2-(4-(trifluoromethyl)phenyl)-2,4-dihydro-3H-pyrazol-3-one] | 1.45 ± 1.14 | 2.95 ± 0.18 | 3.37 ± 0.1 | – | – | – | – | – | –
16 | O=C1CC(c2ccc(Br)cc2)=NN1c1cc(Cl)cc(Cl)c1 [P17, 5-(4-bromophenyl)-2-(3,5-dichlorophenyl)-2,4-dihydro-3H-pyrazol-3-one] | 6.94 ± 1.12 | 5.07 ± 1.18 | 5.56 ± 0.07 | – | – | – | – | – | –
17 | CN(C)C/C=C/C(=O)Nc1cc2c(Nc3ccc(F)c(Cl)c3)ncnc2cc1O[C@H]1CCOC1 [PC-1, Afatinib, reference compound] | 12.2 ± 3.12 | 5.34 ± 0.94 | 8.46 ± 2.03 | – | – | – | – | – | –

Reference: PMC10127554 (Chemical biology & drug design, 2022)
